Assay [1] relates to mice. Kind of assay: Swim test. It counts as in vivo, Wistar rats or Swiss mice. The note with it: 3 and 30 mg/kg, 20 minutes before the test, versus control group and 0.3 mg/kg group. The method, then: This test is based on the induction of alternative behavior in rodents subjected to an acute stress. In this model, the rat or mouse placed in a water-filled cylinder adopts a particular state of immobility. Onset of said immobility is delayed by antidepressants administered acutely or in repeated doses.
Wistar rats or Swiss mice were used. Animals were isolated for one week with a reverse light/dark cycle, then placed in the water-filled cylinder for 6 minutes. The total immobility time was recorded during the last 4 minutes. The treatment was administered 20 minutes before the test. Four groups were used to test three different doses: one control group treated with the vehicle, and one group for the three doses.
N=10; *** p<0.005 (Dunnett test).

For assay [2], the system named is mice. As to the kind of experiment: Light/dark test. Particulars: mice, 0.3, 3 and 30 mg/kg orally 1 hour before the test, versus controls (p<0.01). The class given is in vivo, Balb/c or Swiss mice. An excerpt: This light/dark test is based on the natural tendency of rodents to prefer a dark environment and thereby evaluates the emotional responses of the animals in a situation of bright light. This procedure is suitable for assessing the state of anxiety elicited by anxiety stimuli (Lister's group, 1990). Mice placed in the apparatus, while showing a preference for the dark zone, nonetheless explore the light zone.
Ten to eleven-week old Balb/c or Swiss mice were used. Mice were randomly divided into a control group (treated with the vehicle) and other groups treated with the test compounds.
The test apparatus consisted of two PVC compartments (20×20×14 cm). with a plexiglass lid. One of the compartments was dark. A 100W light bulb was placed 15 cm above the other compartment, emitting the only light in the room (approximately 4400 lux). An opaque plastic tunnel separated the light and dark compartments.
The animal was placed in the light compartment with its head pointed towards the tunnel. The time spent in the light compartment and the number of entries into the light compartment were recorded for 5 minutes after the first entry into the dark zone. The test compound or the control treatment were administered orally 1 hour before the test.
N=10; ** p<0.01; **** p<0.001 (Dunnett test versus control).

The target of assay [3] is T1, PDE3 (Bos taurus, UniProt A0A3Q1M1E8).
T1 sequence (A0A3Q1M1E8 1-1126): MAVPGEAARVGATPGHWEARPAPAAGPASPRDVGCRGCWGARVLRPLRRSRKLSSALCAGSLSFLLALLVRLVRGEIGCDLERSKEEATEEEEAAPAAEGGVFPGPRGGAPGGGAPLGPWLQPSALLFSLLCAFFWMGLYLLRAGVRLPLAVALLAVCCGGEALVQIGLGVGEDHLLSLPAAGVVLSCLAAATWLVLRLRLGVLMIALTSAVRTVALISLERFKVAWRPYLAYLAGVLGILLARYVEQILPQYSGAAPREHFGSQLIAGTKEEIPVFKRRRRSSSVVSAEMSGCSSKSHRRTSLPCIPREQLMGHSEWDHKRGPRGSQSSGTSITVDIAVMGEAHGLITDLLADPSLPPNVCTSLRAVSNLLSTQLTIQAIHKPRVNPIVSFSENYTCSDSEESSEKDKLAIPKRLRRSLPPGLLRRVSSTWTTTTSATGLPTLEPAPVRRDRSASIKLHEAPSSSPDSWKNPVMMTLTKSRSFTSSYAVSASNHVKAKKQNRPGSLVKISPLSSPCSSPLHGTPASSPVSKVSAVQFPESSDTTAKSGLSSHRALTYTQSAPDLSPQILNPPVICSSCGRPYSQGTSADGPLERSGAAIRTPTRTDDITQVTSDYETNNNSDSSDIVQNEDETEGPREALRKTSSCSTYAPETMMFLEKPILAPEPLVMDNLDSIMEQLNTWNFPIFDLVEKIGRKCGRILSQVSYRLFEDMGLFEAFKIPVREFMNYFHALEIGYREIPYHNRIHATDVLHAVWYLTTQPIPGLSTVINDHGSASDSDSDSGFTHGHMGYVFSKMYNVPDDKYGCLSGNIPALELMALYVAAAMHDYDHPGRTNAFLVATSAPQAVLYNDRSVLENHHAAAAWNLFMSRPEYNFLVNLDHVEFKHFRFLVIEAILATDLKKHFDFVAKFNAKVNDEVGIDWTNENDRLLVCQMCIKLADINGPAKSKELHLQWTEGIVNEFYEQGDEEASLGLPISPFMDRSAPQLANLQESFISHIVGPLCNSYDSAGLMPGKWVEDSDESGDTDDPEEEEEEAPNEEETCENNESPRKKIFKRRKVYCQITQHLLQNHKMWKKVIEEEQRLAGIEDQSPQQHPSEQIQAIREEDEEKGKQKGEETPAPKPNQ
Kind of assay: Selectivity: inhibition of PDE3, radioenzymatic phosphodiesterase assay. The class given is biochemical, bovine. Particulars: 10 μM test compound; vascular smooth muscle; read-out: PDE3 percentage inhibition at 10 μM. The method, then:
A 3 g segment of bovine aortic media cut into pieces with scissors was homogenized with an ultra-turrax then a potter glass/glass homogenizer in 7 volumes by weight of buffer A containing a protease inhibitor cocktail (20 mM Tris-HCl, 0.25 M saccharose, 2 mM magnesium acetate, 1 mM dithiothreitol, 5 mM EGTA, 2000 U/ml aprotinin, 10 mg/l leupeptin and 10 mg/l soya trypsic inhibitor). The homogenizate was centrifuged at 105,000 g for 1 hour. The supernatant was loaded on a DEAE-Sephacel column (15 x 1.6 cm) pre-equilibrated with buffer B (buffer A without the saccharose, EGTA and protease inhibitors). The column was washed until there was no detectable absorption at 280 nm, then eluted with a linear gradient of NaCl (0-0.5 M) in buffer B. 3-ml fractions were collected and enzyme activity was determined under the conditions described hereinbelow to localize the different enzymes PDE1, PDE3, PDE4 and PDE5 which were aliquoted and frozen at −80° C. (Lugnier et al., Biochem. Phamacol., 1986, 35: 1746-1751). PDE2 was prepared from bovine endothelial cells by the same methods (Lugnier and Schini, Biochem. Pharmacol., 1990, 39: 75-84).
Cyclic nucleotide phosphodiesterase activity was determined by a radioenzymatic method using tritium-labelled cyclic GMP or AMP (1 μM) as substrate (Lugnier et al., 1986). ^3H-labelled adenosine or guanosine monophosphate formed by hydrolysis of the radiolabelled cyclic nucleotide was then converted to ^3H-labelled adenosine or guanosine in a second reaction with […] in excess. The nucleoside formed was separated from the nucleotides by anion exchange chromatography. Nucleoside radioactivity was determined by liquid scintillation counting. […]
The activity of the compounds was evaluated on other phosphodiesterase isoforms, particularly basal state or calmodulin-activated PDEl from vascular smooth muscle, PDE3, PDE4 and PDE5 from vascular smooth muscle.
The results obtained are presented in Tables 1 and 2 hereinbelow and are expressed as the percentage inhibition of enzymatic activity produced by […] of the test compound.

Molecules are shown by their SMILES.

For `COc1cc2c(cc1OC)N(C)C(=O)CN=C2c1cccc(C(N)=O)c1` [Compound 5a, 3-(7,8-dimethoxy-1-methyl-2-oxo-2,3-dihydro-1H-1,4-benzodiazepin-5-yl)-benzamide], in assay [1], the total immobility time result is on record as “shorter immobility time”. Moreover, the “time spent in the light compartment” value in assay [2] is on record as “significantly more time in the light compartment”. Moreover, the inhibition at 10 µM in assay [3] is 5%.

One may read the inhibition as the drop in the measured response relative to a control, in per cent.
